A word on the melting point: it is the temperature of the solid-liquid transition.

Each structure is given as a SMILES string.

The test system of one data set is male Sprague-Dawley rats. Put plainly: elevated maze test in the rat. The note with it: per os, 60-min pretreatment, 5-min measurement, time spent in the open arms and number of entries into the open arms. Format: in vivo. How it is done: Pharmacological activity of the compounds of the general Formula (I) has been evaluated in elevated maze test in the rat.
The tests were carried out according to the method of S. Pellow and coworkers (J. Neurosci. Methods. 1985, 14, 149-167). During the test, a wooden-floor cross elevated by 50 cm from the floor was used. The length and the width of the arms of the cross were 100 and 15 cm, respectively. Two opposite arms of the cross are fitted at the ends and both sides with black plexyglass wall of 40 cm height (closed arms).
The central section of the cross measuring 15 by 15 cm is open. The other two opposite arms of the cross are not provided with walls (open arms).
The tests were carried out in male Sprague-Dawley rats weighing 200 to 220 g. After the 60-min pretreatment time (per os treatment), the animal was placed in the center of the maze. During the 5-min measurement time, four variables were recorded: the time spent in the open arms; the time spent in the closed arms; the number of entries into the open arms; the number of entries into the closed arms.
Animals normally avoid the open and light parts of the maze, thereby spending little time therein only. The anxiolytic effect of the compounds of the general Formula (I) is indicated by the increase in the time spent (in seconds) in the open arms and/or by the increase in the number of the entries into the open compartments of the maze. The minimum effective dose (MED) was determined for each tested compounds regarding the time spent in the open arms and the number of entries into the open arms. During the test, the known anxiolytic compound 1-methyl-5-phenyl-7-chloro-1,3-dihydro-2H-1,4-benzodiazepin-2-one (INN: diazepam) of the Formula (IV)
was used. Treatment of the animals was carried out orally with the doses 0.1, 0.3, 1.0, 3.0 for diazepam and 0.01, 0.1, 1.0 mg/kg for the compounds of the general Formula (I).
Consider `CN1C(=O)CN=C(c2ccccc2)c2cc(Cl)ccc21` [Diazepam, 1-methyl-5-phenyl-7-chloro-1,3-dihydro-2H-1,4-benzodiazepin-2-one, reference compound], for which the “MED (minimum effective dose), anxiolytic effect in elevated maze test” value (shortened to “MED (minimum effective dose)”) came to 1.00 mg/kg p.o.

In the case of `CC1=NNS(=O)(=O)c2c1ccc(Cl)c2Cl` [Example 3, 7,8-Dichloro-4-methylbenzo[1,2,3]tiadiazine-1,1-dioxide], the “MED (minimum effective dose)” value was “≦0.01 mg/kg p.o”.

Consider `CC1=NNS(=O)(=O)c2c(Cl)c(Cl)cc(C)c21` [Example 5, 7,8-Dichloro-4,5-dimethylbenzo[1,2,3]thiadiazine-1,1-dioxide], for which the “MED (minimum effective dose)” value is “≦0.01 mg/kg p.o”.

Take `CN1N=Cc2ccc(Cl)c(Cl)c2S1(=O)=O` [Example 20, 7,8-Dichloro-2-methylbenzo[1,2,3]thiadiazine-1,1-dioxide]: the “MED (minimum effective dose)” value was “≦0.01 mg/kg p.o”.

Tested on in the next data set: not given
Assay: not given
Details: not given
Turning to `CC1=NNS(=O)(=O)c2cc(Cl)ccc21` [Example 1, 7-chloro-4-methylbenzo[1,2,3]thiadiazine-1,1-dioxide], the melting point was in the range of 187 to 189 °C.

Regarding `CCC1=NNS(=O)(=O)c2cc(Cl)ccc21` [Example 2, 4-Ethyl-7-chlorobenzo[1,2,3]thiadiazine-1,1-dioxide], the melting point lay within 196 to 198 °C.

In turn, `CCC1=NNS(=O)(=O)c2c1ccc(Cl)c2Cl` [Example 4, 7,8-Dichloro-4-ethylbenzo[1,2,3]thiadiazine-1,1-dioxide] yielded a melting point of 238 to 239 °C.

Take `CC1=NNS(=O)(=O)c2c(Cl)cccc21` [Example 6, 8-chloro-4-methylbenzo[1,2,3]thiadiazine-1,1-dioxide]: the melting point was 206 to 207 °C.

In turn, `COc1ccc2c(c1Cl)S(=O)(=O)NN=C2C` [Example 7, 8-chloro-4-methyl-7-methoxybenzo[1,2,3]thiadiazine-1,1-dioxide] came in with a melting point of 227 to 229 °C.

Compound `COc1cccc2c1S(=O)(=O)NN=C2C` [Example 8, 4-Methyl-8-methoxybenzo[1,2,3]thiadiazine-1,1-dioxide] registered a melting point of 194 to 197 °C.

`COc1ccc2c(c1OC)S(=O)(=O)NN=C2C` [Example 9, 7,8-Dimethoxy-4-methylbenzo[1,2,3]thiadiazine-1,1-dioxide] returned a melting point of 238 to 240 °C.

In turn, `CC1=NNS(=O)(=O)c2c1cc(C)c(Cl)c2Cl` [Example 10, 7,8-Dichloro-4,6-dimethylbenzo[1,2,3]thiadiazine-1,1-dioxide] gave a melting point of 224 to 226 °C.

With `O=S1(=O)NN=Cc2ccc(Cl)c(Cl)c21` [Example 11, 7,8-Dichlorobenzo[1,2,3]thiadiazine-1,1-dioxide], the melting point lay within 183 to 185 °C.

`COc1ccc2c(c1)C=NNS2(=O)=O` [Example 12, 6-Methoxybenzo[1,2,3]thiadiazine-1,1-dioxide]: the melting point lay within 163 to 164 °C.

In turn, `CC1=NNS(=O)(=O)c2ccccc21` [Example 13, 4-Methylbenzo[1,2,3]thiadiazine-1,1-dioxide] returned a melting point of 183 to 185 °C.

For `COc1ccc2c(c1)S(=O)(=O)NN=C2C` [Example 14, 4-Methyl-7-methoxybenzo[1,2,3]thiadiazine-1,1-dioxide], the melting point lay in the range of 174 to 176 °C.

Consider `O=S1(=O)NN=Cc2ccc(Cl)cc21` [Example 15, 7-chlorobenzo[1,2,3]thiadiazine-1,1-dioxide], for which the melting point was 221 to 223 °C.

Compound `CCC1=NN(C)S(=O)(=O)c2c1ccc(Cl)c2Cl` [Example 18, 7,8-Dichloro-4-ethyl-2-methylbenzo[1,2,3]thiadiazine-1,1-dioxide] registered a melting point of 119 to 120 °C.

`CCC1=NN(CC)S(=O)(=O)c2c1ccc(Cl)c2Cl` [Example 19, 2,4-Diethyl-7,8-dichlorobenzo[1,2,3]thiadiazine-1,1-dioxide] displayed a melting point of 79 to 82 °C.

Regarding `CN1N=Cc2ccc(Cl)c(Cl)c2S1(=O)=O` [Example 20, 7,8-Dichloro-2-methylbenzo[1,2,3]thiadiazine-1,1-dioxide], the melting point lay in the range of 120 to 121 °C.

Consider `CN1N=Cc2ccc(Cl)cc2S1(=O)=O` [Example 21, 7-chloro-2-methylbenzo[1,2,3]thiadiazine-1,1-dioxide], for which the melting point fell in the range of 131 to 133 °C.

For `COc1ccc2c(c1)C=NN(C)S2(=O)=O` [Example 22, 2-Methyl-6-methoxybenzo[1,2,3]thiadiazine-1,1-dioxide], the melting point fell in the range of 99 to 101 °C.

In turn, `CN1N=Cc2ccccc2S1(=O)=O` [Example 23, 2-Methylbenzo[1,2,3]thiadiazine-1,1-dioxide] displayed a melting point of 79 to 80 °C.

`CC1=NN(C)S(=O)(=O)c2c(Cl)c(Cl)cc(C)c21` [Example 24, 7,8-Dichloro-2,4,5-trimethylbenzo[1,2,3]thiadiazine-1,1-dioxide] came in with a melting point of 166 to 168 °C.

Turning to `COc1ccc2c(c1Cl)S(=O)(=O)N(C)N=C2C` [Example 25, 8-chloro-7-methoxy-2,4-dimethylbenzo[1,2,3]thiadiazine-1,1-dioxide], the melting point was in the range of 151 to 152 °C.

On to `CC1=NN(C)S(=O)(=O)c2c1cc(C)c(Cl)c2Cl` [Example 26, 7,8-Dichloro-2,4,6-trimethylbenzo[1,2,3]thiadiazine-1,1-dioxide], for which the melting point lay in the range of 179 to 180 °C.

`COc1ccc2c(c1Cl)S(=O)(=O)N(C)N=C2` [Example 28, 8-chloro-2-methyl-7-methoxybenzo[1,2,3]thiadiazine-1,1-dioxide] registered a melting point of 173 to 175 °C.

Values taken from US20100168087A1, “BENZO[1,2,3]THIADIAZINE DERIVATES” (priority 2006, published 2010).
